In PubChem BioAssay AID1963958 (Molecular Pharmacology Branch, DTP, NCI, 2024):

System: MDA-MB-231 multicell spheroids, viability
Experiment: Anticancer human tumor MDA-MB-231 cell line growth inhibition [PI3K];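 further: spheroids exposed to agents for seven days before reading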;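 on viability, T/C: percent of vehicle control luminescence with DMSO treated spheroids as 100%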
Settings: for IC50: curve of first compound; for viability, T/C: stronger effect = lower value
Method in brief: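 Tumor cells grown as multi-cell spheroids with HUVEC endothelial cells and MSC fibroblast-like stroma were treated with targeted agents combined with inavolisib, alpelisib, duvelisib or copanlisib. Doses fell in half-log steps from near clinical Cmax, else from 10 microM. Viability was measured.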

CC(C)NCC(C(=O)N1CCN(c2ncnc3c2C(C)CC3O)CC1)c1ccc(Cl)cc1 (configuration not stated) + COc1c(OCCCN2CCOCC2)ccc2c3n(c(=NC(=O)c4cnc(N)nc4)nc12)CCN3
IC50 (second compound 0.00316 µM): 7260 nM
IC50 (second compound 0.01 µM): 4830 nM
IC50 (second compound 0.0316 µM): 1840 nM
IC50 (second compound 0.1 µM): < 31.6 nM
IC50 (second compound 0.316 µM): < 31.6 nM
IC50 (second compound 1 µM): < 31.6 nM
viability, T/C (second compound 0.00316 µM, first compound 0.0316 µM): 96.1%
viability, T/C (second compound 0.00316 µM, first compound 0.1 µM): 93.7%
viability, T/C (second compound 0.00316 µM, first compound 0.316 µM): 83.5%
viability, T/C (second compound 0.00316 µM, first compound 1 µM): 74.6%
viability, T/C (second compound 0.00316 µM, first compound 3.16 µM): 59.3%
viability, T/C (second compound 0.00316 µM, first compound 10 µM): 46.3%
viability, T/C (second compound 0.01 µM, first compound 0.0316 µM): 81.8%
viability, T/C (second compound 0.01 µM, first compound 0.1 µM): 81.4%
viability, T/C (second compound 0.01 µM, first compound 0.316 µM): 69.2%
viability, T/C (second compound 0.01 µM, first compound 1 µM): 62.6%
viability, T/C (second compound 0.01 µM, first compound 3.16 µM): 54.7%
viability, T/C (second compound 0.01 µM, first compound 10 µM): 43.4%
viability, T/C (second compound 0.0316 µM, first compound 0.0316 µM): 61.6%
viability, T/C (second compound 0.0316 µM, first compound 0.1 µM): 59.1%
viability, T/C (second compound 0.0316 µM, first compound 0.316 µM): 55.8%
viability, T/C (second compound 0.0316 µM, first compound 1 µM): 56.3%
viability, T/C (second compound 0.0316 µM, first compound 3.16 µM): 45.6%
viability, T/C (second compound 0.0316 µM, first compound 10 µM): 33.9%
viability, T/C (second compound 0.1 µM, first compound 0.0316 µM): 48.5%
viability, T/C (second compound 0.1 µM, first compound 0.1 µM): 48.7%
viability, T/C (second compound 0.1 µM, first compound 0.316 µM): 45.6%
viability, T/C (second compound 0.1 µM, first compound 1 µM): 39.3%
viability, T/C (second compound 0.1 µM, first compound 3.16 µM): 37.9%
viability, T/C (second compound 0.1 µM, first compound 10 µM): 28.9%
viability, T/C (second compound 0.316 µM, first compound 0.0316 µM): 32.9%
viability, T/C (second compound 0.316 µM, first compound 0.1 µM): 34%
viability, T/C (second compound 0.316 µM, first compound 0.316 µM): 31.2%
viability, T/C (second compound 0.316 µM, first compound 1 µM): 30.1%
viability, T/C (second compound 0.316 µM, first compound 3.16 µM): 25.5%
viability, T/C (second compound 0.316 µM, first compound 10 µM): 18.7%
viability, T/C (second compound 1 µM, first compound 0.0316 µM): 23.8%
viability, T/C (second compound 1 µM, first compound 0.1 µM): 23.7%
viability, T/C (second compound 1 µM, first compound 0.316 µM): 24.9%
viability, T/C (second compound 1 µM, first compound 1 µM): 23%
viability, T/C (second compound 1 µM, first compound 3.16 µM): 24.8%
viability, T/C (second compound 1 µM, first compound 10 µM): 18.8%
